pIC50: −log10 of the molar value.
target: T1, MAGL (Homo sapiens, UniProt Q99685); test: 2-AG assay (MAGL inhibitory activity; hydrolysis of 2-arachidonoylglycerol to arachidonic acid followed by mass spectrometry); format: biochemical; details: 15 min preincubation at RT, 8 μM 2-arachidonoylglycerol, 30 min at RT, RapidFire MS readout
T1 sequence (Q99685 1-303): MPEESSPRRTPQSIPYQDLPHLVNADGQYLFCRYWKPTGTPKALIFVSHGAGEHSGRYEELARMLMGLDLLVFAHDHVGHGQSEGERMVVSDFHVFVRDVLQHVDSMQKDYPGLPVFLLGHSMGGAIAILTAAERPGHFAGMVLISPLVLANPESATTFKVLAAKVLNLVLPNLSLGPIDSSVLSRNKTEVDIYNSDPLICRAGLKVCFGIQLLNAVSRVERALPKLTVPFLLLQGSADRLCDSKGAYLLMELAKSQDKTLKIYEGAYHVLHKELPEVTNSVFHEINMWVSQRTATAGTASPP
How it was run: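 Compounds (final 12.5 μM to […], 3-fold steps) preincubated 15 min at RT with MAGL ([…]) in 50 mM TRIS, 1 mM EDTA, Tween buffer. Reaction started with 8 μM 2-arachidonoylglycerol, run 30 min at RT, quenched with ACN containing d8-arachidonic acid. Arachidonic acid quantified by RapidFire SPE-triple quadrupole MS (negative ESI), activity from arachidonic acid/d8 ratio.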

Structure (SMILES) | pIC50
COc1cccc(C(=O)N2CCN3C[C@@H](c4cc(C(F)(F)F)c(F)cn4)OC[C@@H]3C2)c1Cl [Example 101, (2-chloro-3-methoxy-phenyl)-[(3S,9aS)-3-[5-fluoro-4-(trifluoromethyl)-2-pyridyl]-3,4,6,7,9,9a-hexahydro-1H-pyrazino[2,1-c][1,4]oxazin-8-yl]methanone] | 6.88
COc1cccc(C(=O)N2CCN3C[C@@](O)(c4ccc(F)c(F)c4F)OC[C@@H]3C2)c1Cl [Example 130, [(3R,9aS)-3-hydroxy-3-(2,3,4-trifluorophenyl)-1,4,6,7,9,9a-hexahydropyrazino[2,1-c][1,4]oxazin-8-yl]-(2-chloro-3-methoxy-phenyl)methanone] | 6.93
COc1cccc(C(=O)N2CCN3C[C@@](O)(c4cccc(F)c4F)OC[C@@H]3C2)c1Cl [Example 142, [(3R,9aS)-3-(2,3-difluorophenyl)-3-hydroxy-1,4,6,7,9,9a-hexahydropyrazino[2,1-c][1,4]oxazin-8-yl]-(2-chloro-3-methoxy-phenyl)methanone] | 6.48

These reach a higher pIC50. Values come first.

pIC50 | Structure (SMILES)
7.55 | O=C(c1cccc(-c2cn[nH]c2C(F)(F)F)c1)N1CCN2C[C@@H](c3ccc(F)c(Cl)c3)OC[C@@H]2C1 [Example 103, [(3R,9aS)-3-(3-chloro-4-fluoro-phenyl)-3,4,6,7,9,9a-hexahydro-1H-pyrazino[2,1-c][1,4]oxazin-8-yl]-[3-[5-(trifluoromethyl)-1H-pyrazol-4-yl]phenyl]methanone]
8.05 | O=C(c1cccc(-c2cc[nH]c(=O)c2)c1Cl)N1CCN2C[C@@H](c3ccc(F)c(Cl)c3)OC[C@@H]2C1 [Example 105, 4-[3-[(3R,9aS)-3-(3-chloro-4-fluoro-phenyl)-3,4,6,7,9,9a-hexahydro-1H-pyrazino[2,1-c][1,4]oxazine-8-carbonyl]-2-chloro-phenyl]-1H-pyridin-2-one]
6.95 | COc1cccc(C(=O)N2CCN3C[C@@](O)(c4ccc(Cl)cc4Cl)OC[C@@H]3C2)c1Cl [Example 129, [(3R,9aS)-3-(2,4-dichlorophenyl)-3-hydroxy-1,4,6,7,9,9a-hexahydropyrazino[2,1-c][1,4]oxazin-8-yl]-(2-chloro-3-methoxy-phenyl)methanone]
7.37 | COc1cccc(C(=O)N2CCN3C[C@@](O)(c4ccc(Cl)c(F)c4)OC[C@@H]3C2)c1Cl [Example 120, [(3R,9aS)-3-(4-chloro-3-fluoro-phenyl)-3-hydroxy-1,4,6,7,9,9a-hexahydropyrazino[2,1-c][1,4]oxazin-8-yl]-(2-chloro-3-methoxy-phenyl)methanone]
7.58 | N#Cc1n[nH]cc1-c1cccc(C(=O)N2CCN3C[C@@](O)(c4ccc(C(F)(F)F)nc4)OC[C@@H]3C2)c1Cl [Example 80, 4-[3-[(3R,9aS)-3-hydroxy-3-[6-(trifluoromethyl)-3-pyridyl]-1,4,6,7,9,9a-hexahydropyrazino[2,1-c][1,4]oxazine-8-carbonyl]-2-chloro-phenyl]-1H-pyrazole-3-carbonitrile]
